# US8785439B2, “2,5,7-substituted oxazolopyrimidine derivatives” (Sanofi, priority 2010, dated 2014)
# Molecular target: T1, human Edg-1 receptor (Homo sapiens, UniProt P21453)
# T1 construct: FLAG (N); expressed in transfected cells; membrane preparation
# Experiment: GTP-γ-S assay using human Edg-1 receptors (SPA, CHO Flp-In cell membrane preparation)
# Format: biochemical
# Conditions: test compound at 10 μM; high control 10 μM S1P regarded as 100% activation; background-corrected; triplicate
# Summary of the method: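 Membranes from CHO Flp-In cells stably overexpressing N-terminally FLAG-tagged human Edg-1 were used in a scintillation-proximity GTP-γ-S binding assay to measure receptor activation by compounds.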
# T1 sequence (P21453 whole entry): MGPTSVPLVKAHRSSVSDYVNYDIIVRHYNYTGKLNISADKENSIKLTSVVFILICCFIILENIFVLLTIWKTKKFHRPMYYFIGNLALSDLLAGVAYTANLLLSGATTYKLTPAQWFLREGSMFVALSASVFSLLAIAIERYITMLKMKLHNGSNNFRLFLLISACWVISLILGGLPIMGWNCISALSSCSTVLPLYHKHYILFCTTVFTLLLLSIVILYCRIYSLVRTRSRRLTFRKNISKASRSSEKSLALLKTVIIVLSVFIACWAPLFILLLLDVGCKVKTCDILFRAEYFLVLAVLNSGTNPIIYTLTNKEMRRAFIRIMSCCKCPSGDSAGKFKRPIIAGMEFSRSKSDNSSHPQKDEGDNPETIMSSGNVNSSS
row,% Activation (Edg-1 receptor activation in percent of the activation by 10 μM S1P) [%],SMILES
1,72,CC1(C)OCC(COc2nc(OCC3CC3)c3nc(-c4cccc(F)c4)oc3n2)O1 (stereo not drawn) [Example 35]

# Same assay, conditions: test compound at 10 μM; high control 10 μM S1P regarded as 100% activation; background-corrected; triplicate; read-out: % Activation (Edg-1 receptor activation in percent of the activation by 10 μM S1P)
row,activation at 10 µM [%],SMILES
1,42,"CCCOc1nc(Oc2ccc(C)nn2)nc2oc(-c3cccc(F)c3)nc12 [Example 18, 2-(3-fluoro-phenyl)-5-(6-methyl-pyridazin-3-yloxy)-7-propoxy-oxazolo[5,4-d]pyrimidine]"
2,95,"CCCOc1nc(Oc2ccccc2F)nc2oc(-c3ccc(Cl)c(Cl)c3)nc12 [Example 15, 2-(3,4-dichloro-phenyl)-5-(2-fluoro-phenoxy)-7-propoxy-oxazolo[5,4-d]pyrimidine]"
3,100,"CCOc1nc(Oc2cccc(S(N)(=O)=O)c2)nc2oc(-c3cccc(C)c3)nc12 [Example 22, 3-(7-ethoxy-2-(3-methyl-phenyl)-oxazolo[5,4-d]pyrimidin-5-yloxy)-benzenesulfonamide]"
4,98,"Fc1cncc(Oc2nc(OCC3CC3)c3nc(-c4ccc(Cl)c(Cl)c4)oc3n2)c1 [Example 108, 7-cyclopropylmethoxy-2-(3,4-dichloro-phenyl)-5-(5-fluoro-pyridin-3-yloxy)-oxazolo[5,4-d]pyrimidine]"
5,51,"CCCOc1nc(Oc2ccc(C#N)cc2OC)nc2oc(-c3cccc(C)c3)nc12 [Example 92, 3-methoxy-4-(7-propoxy-2-(3-methyl-phenyl)-oxazolo[5,4-d]pyrimidin-5-yloxy)-benzonitrile]"
6,80,"CCCOc1nc(NC2CCOCC2)nc2oc(-c3cc(F)ccc3Cl)nc12 [Example 57, [2-(2-chloro-5-fluoro-phenyl)-7-propoxy-oxazolo[5,4-d]pyrimidin-5-yl]-(tetrahydro-pyran-4-yl)-amine]"
7,86,"CCCOc1nc(Oc2ccc(Cl)cc2C)nc2oc(-c3cccc(C)c3)nc12 [Example 88, 5-(4-chloro-2-methyl-phenoxy)-7-propoxy-2-(3-methyl-phenyl)-oxazolo[5,4-d]pyrimidine]"
8,46,"CCCOc1nc(Oc2ccc(SC(F)(F)F)cc2)nc2oc(-c3cccc(C)c3)nc12 [Example 112, 7-propoxy-2-(3-methyl-phenyl)-5-(4-trifluoromethylsulfanyl-phenoxy)-oxazolo[5,4-d]pyrimidine]"
9,55,"CCOc1nc(Oc2cccc(S(=O)(=O)N(C)C)c2)nc2oc(-c3cccc(C)c3)nc12 [Example 17, 3-(7-ethoxy-2-(3-methyl-phenyl)-oxazolo[5,4-d]pyrimidin-5-yloxy)-N,N-dimethyl-benzenesulfonamide]"
10,91,"CCCOc1nc(Oc2ccc(F)cc2OC)nc2oc(-c3cccc(C)c3)nc12 [Example 99, 5-(4-fluoro-2-methoxy-phenoxy)-7-propoxy-2-(3-methyl-phenyl)-oxazolo[5,4-d]pyrimidine]"
11,74,"CCCOc1nc(Oc2ccccc2)nc2oc(-c3cccc(F)c3)nc12 [Example 61, 2-(3-fluoro-phenyl)-5-phenoxy-7-propoxy-oxazolo[5,4-d]pyrimidine]"
12,123,"Cc1cc(-c2nc3c(OC4COC4)nc(Oc4ccccc4F)nc3o2)cc(C)c1OC1COC1 [Example 49, 2-[3,5-dimethyl-4-(oxetan-3-yloxy)-phenyl]-5-(2-fluoro-phenoxy)-7-(oxetan-3-yloxy)-oxazolo[5,4-d]pyrimidine]"

# Continued, compound first:
row,SMILES,activation at 10 µM [%]
1,"CCCOc1nc(Oc2ccc(F)c(C)c2)nc2oc(-c3cccc(C)c3)nc12 [Example 130, 5-(4-fluoro-3-methyl-phenoxy)-7-propoxy-2-(3-methyl-phenyl)-oxazolo[5,4-d]pyrimidine]",107
2,"CCCOc1nc(Oc2ccccc2F)nc2oc(-c3cccc(C)c3)nc12 [Example 103, 5-(2-fluoro-phenoxy)-7-propoxy-2-(3-methyl-phenyl)-oxazolo[5,4-d]pyrimidine]",109
3,"CCCOc1nc(Oc2cccc(OC)c2)nc2oc(-c3cccc(C)c3)nc12 [Example 118, 5-(3-methoxy-phenoxy)-7-propoxy-2-(3-methyl-phenyl)-oxazolo[5,4-d]pyrimidine]",98
4,"CCCOc1nc(Oc2c(Cl)cccc2Cl)nc2oc(-c3cccc(C)c3)nc12 [Example 86, 5-(2,6-dichloro-phenoxy)-7-propoxy-2-(3-methyl-phenyl)-oxazolo[5,4-d]pyrimidine]",98
5,"CCOc1nc(Oc2cc(C)nn2C)nc2oc(-c3cc(F)ccc3Cl)nc12 [Example 10, 2-(2-chloro-5-fluoro-phenyl)-5-(2,5-dimethyl-2H-pyrazol-3-yloxy)-7-ethoxy-oxazolo[5,4-d]pyrimidine]",107
6,"CCCOc1nc(Oc2c(F)cccc2F)nc2oc(-c3cccc(C)c3)nc12 [Example 97, 5-(2,6-difluoro-phenoxy)-7-propoxy-2-(3-methyl-phenyl)-oxazolo[5,4-d]pyrimidine]",124
7,"CCCOc1nc(Sc2nc(C)cs2)nc2oc(-c3cccc(C)c3)nc12 [Example 55, 5-(4-methyl-thiazol-2-ylsulfanyl)-7-propoxy-2-(3-methyl-phenyl)-oxazolo[5,4-d]pyrimidine]",81
8,"CCCOc1nc(Oc2ccccc2F)nc2oc(-c3cccc(F)c3)nc12 [Example 31, 5-(2-fluoro-phenoxy)-2-(3-fluoro-phenyl)-7-propoxy-oxazolo[5,4-d]pyrimidine]",80
9,"CCCOc1nc(SC2CCS(=O)(=O)C2)nc2oc(-c3cccc(F)c3)nc12 (stereo not drawn) [Example 14, 5-(1,1-dioxo-tetrahydro-1lambda6-thiophen-3-ylsulfanyl)-2-(3-fluoro-phenyl)-7-propoxy-oxazolo[5,4-d]pyrimidine]",72
10,"CCCOc1nc(NN2CCOCC2)nc2oc(-c3cccc(C)c3)nc12 [Example 65, morpholin-4-yl-(7-propoxy-2-(3-methyl-phenyl)-oxazolo[5,4-d]pyrimidin-5-yl)-amine]",105
11,"CCCOc1nc(Oc2ccccc2)nc2oc(-c3cc(F)ccc3Cl)nc12 [Example 78, 2-(2-chloro-5-fluoro-phenyl)-5-phenoxy-7-propoxy-oxazolo[5,4-d]pyrimidine]",70
12,"CCCOc1nc(Oc2cc(C)cc(C)c2C)nc2oc(-c3cccc(C)c3)nc12 [Example 123, 7-propoxy-2-(3-methyl-phenyl)-5-(2,3,5-trimethyl-phenoxy)-oxazolo[5,4-d]pyrimidine]",65
13,"CCCOc1nc(Oc2cc(C)nn2C)nc2oc(-c3cccc(F)c3)nc12 [Example 24, 5-(2,5-dimethyl-2H-pyrazol-3-yloxy)-2-(3-fluoro-phenyl)-7-propoxy-oxazolo[5,4-d]pyrimidine]",99
14,"CCCOc1nc(OC2CCC(C)CC2)nc2oc(-c3cc(F)ccc3Cl)nc12 (stereo not drawn) [Example 85, 2-(2-chloro-5-fluoro-phenyl)-5-(4-methyl-cyclohexyloxy)-7-propoxy-oxazolo[5,4-d]pyrimidine]",67
15,"CCCOc1nc(OCC2(C)COC2)nc2oc(-c3cc(F)ccc3Cl)nc12 [Example 152, 2-(2-chloro-5-fluoro-phenyl)-5-(3-methyl-oxetan-3-ylmethoxy)-7-propoxy-oxazolo[5,4-d]pyrimidine]",46
16,"CCCOc1nc(Oc2cc(F)cc(C(F)(F)F)c2)nc2oc(-c3cccc(C)c3)nc12 [Example 144, 5-(3-fluoro-5-trifluoromethyl-phenoxy)-7-propoxy-2-(3-methyl-phenyl)-oxazolo[5,4-d]pyrimidine]",76
17,"Cc1cc(Oc2nc(OCC3CC3)c3nc(-c4cc(F)ccc4Cl)oc3n2)n(C)n1 [Example 11, 2-(2-chloro-5-fluoro-phenyl)-7-cyclopropylmethoxy-5-(2,5-dimethyl-2H-pyrazol-3-yloxy)-oxazolo[5,4-d]pyrimidine]",105
18,"CCCOc1nc(Oc2ccccc2)nc2oc(-c3cccc(C)c3)nc12 [Example 51, 5-phenoxy-7-propoxy-2-(3-methyl-phenyl)-oxazolo[5,4-d]pyrimidine]",110
19,"CCCOc1nc(Oc2cc(C(F)(F)F)ccc2Cl)nc2oc(-c3cccc(C)c3)nc12 [Example 143, 5-(2-chloro-5-trifluoromethyl-phenoxy)-7-propoxy-2-(3-methyl-phenyl)-oxazolo[5,4-d]pyrimidine]",52
20,"CCCOc1nc(NC2CCCCC2)nc2oc(-c3cc(F)ccc3Cl)nc12 [Example 149, [2-(2-chloro-5-fluoro-phenyl)-7-propoxy-oxazolo[5,4-d]pyrimidin-5-yl]-cyclohexyl-amine]",70
21,"CCCOc1nc(Oc2ccc(Cl)cc2OC)nc2oc(-c3cccc(F)c3)nc12 [Example 60, 5-(4-chloro-2-methoxy-phenoxy)-2-(3-fluoro-phenyl)-7-propoxy-oxazolo[5,4-d]pyrimidine]",80
22,"CCCOc1nc(N[C@H]2CCC[C@H](C)C2)nc2oc(-c3cc(F)ccc3Cl)nc12 [Example 147, [2-(2-chloro-5-fluoro-phenyl)-7-propoxy-oxazolo[5,4-d]pyrimidin-5-yl]-((1S,3S)-3-methyl-cyclohexyl)-amine]",63
23,"CCCOc1nc(Oc2cc(F)cc(F)c2)nc2oc(-c3cccc(C)c3)nc12 [Example 127, 5-(3,5-difluoro-phenoxy)-7-propoxy-2-(3-methyl-phenyl)-oxazolo[5,4-d]pyrimidine]",110
24,"CCCOc1nc(Sc2nccs2)nc2oc(-c3cc(F)ccc3Cl)nc12 [Example 59, 2-(2-chloro-5-fluoro-phenyl)-7-propoxy-5-(thiazol-2-ylsulfanyl)-oxazolo[5,4-d]pyrimidine]",103
25,"CCOc1nc(Oc2cc(C)nn2C)nc2oc(-c3cccc(C)c3)nc12 [Example 26, 5-(2,5-dimethyl-2H-pyrazol-3-yloxy)-7-ethoxy-2-(3-methyl-phenyl)-oxazolo[5,4-d]pyrimidine]",101
26,"CCCOc1nc(Oc2ccc(Cl)cc2OC)nc2oc(-c3cc(F)ccc3Cl)nc12 [Example 63, 2-(2-chloro-5-fluoro-phenyl)-5-(4-chloro-2-methoxy-phenoxy)-7-propoxy-oxazolo[5,4-d]pyrimidine]",80
